These results are taken from the Kinase Knowledgebase extract (Sharma et al. 2016).

Broadly, the IC50 is the concentration at which inhibition is half-maximal. A lower IC50 goes with greater potency in that assay. One may read the Ki as a measure of affinity in units of concentration, obtained from inhibition or displacement. The low end stands for a stronger hold on the target, the high end for a looser hold on the target.

Where “and” joins values, the source holds several entries; their conditions need not be identical. Equal values may be shown once.

Chain of MAPK14 (human) (Q16539 whole entry, looked up): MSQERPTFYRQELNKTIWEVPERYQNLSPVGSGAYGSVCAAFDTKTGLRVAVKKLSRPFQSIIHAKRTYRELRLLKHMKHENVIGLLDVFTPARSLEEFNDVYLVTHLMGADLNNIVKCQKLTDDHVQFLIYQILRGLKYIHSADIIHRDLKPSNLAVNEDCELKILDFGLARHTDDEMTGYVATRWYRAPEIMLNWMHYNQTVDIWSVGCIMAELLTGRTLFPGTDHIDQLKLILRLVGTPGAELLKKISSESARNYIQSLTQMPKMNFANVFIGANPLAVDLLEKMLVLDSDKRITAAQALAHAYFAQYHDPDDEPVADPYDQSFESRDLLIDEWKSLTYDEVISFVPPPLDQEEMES

This test addresses MAPK14 (human) (UniProt Q16539). The experiment in a line: Inhibition of MAPK14 Kinase Activity.
Turning to `CC(C)n1c(N2CC[C@@H](NCCO)C2)nc(OCc2ccc(F)cc2F)c(Br)c1=O`, the IC50 stood at 615 nM and the inhibition constant (Ki) was 343 nM.
With `Cn1c(NCC(N)=O)nc(OCc2ccc(F)cc2F)c(Br)c1=O`, the IC50 is 954 nM and the Ki came to 532 nM.
In turn, `CC(C)n1c(OCCNS(C)(=O)=O)nc(OCc2ccc(F)cc2F)c(Cl)c1=O` returned an IC50 of 26.3 nM and a Ki of 15.5 nM.
For `CC(C)n1c(NCCCNC(=O)C(C)(C)O)nc(OCc2ccc(F)cc2F)c(Br)c1=O`, in that order: 23.8 nM and 12.7 nM.
The like results for `CC(C)n1c(N2CC[C@@H](NC(=O)OCc3ccccn3)C2)nc(OCc2ccc(F)cc2F)c(Br)c1=O` were, in that order, 1220 nM and 756 nM.
In turn, `CC(C)n1c(CCCCO)nc(OCc2ccc(F)cc2F)c(Cl)c1=O` registered an IC50 of 181 nM and a Ki of 90.5 nM.
In the case of `CC(C)n1c(NCCNC(=O)CO)nc(OCc2ccc(F)cc2F)c(Br)c1=O`, the IC50 came to 14.2 nM and the Ki amounted to 6.58 nM.
Take `Cc1nc(OCc2ccc(F)cc2CNC(=O)NC2CCCCC2)c(Br)c(=O)n1C(C)C`: the IC50 was 786 nM and the Ki is 372 nM.
`CC(C)n1c(O)nc(OCc2ccc(F)cc2F)c(Cl)c1=O` had an IC50 of 267 nM and a Ki of 139 nM.
`CC(C)n1c(CCCCO)nc(OCc2ccc(F)cc2F)c(Br)c1=O` showed an IC50 of 239 nM and a Ki of 114 nM.
On to `CC(=O)N[C@@H]1CCN(c2nc(OCc3ccc(F)cc3F)c(Cl)c(=O)n2C(C)C)C1`, for which the IC50 is 578 nM and the Ki was 371 nM.
`CC(C)n1c(NCCN)nc(OCc2ccc(F)cc2F)c(Br)c1=O` came in with an IC50 of 143 nM and a Ki of 78.1 nM.
With `CC(C)n1c(NCCC(N)=O)nc(OCc2ccc(F)cc2F)c(Br)c1=O`, the IC50 is 12.8 nM and 14.2 nM; the Ki is 6.86 nM and 6.37 nM.
As for `CNC(=O)CNc1nc(OCc2ccc(F)cc2F)c(Br)c(=O)n1C(C)C`, the IC50 is 80 nM and the Ki worked out at 41.9 nM.
Consider `CC(C)n1c(N2CC[C@@H](N)C2)nc(OCc2ccc(F)cc2F)c(Br)c1=O`, for which the IC50 turned out to be 69.6 nM and the Ki was 36.3 nM.
For `CC(C)n1c(-c2ccc(C(N)=O)cc2)nc(OCc2ccc(F)cc2F)c(Cl)c1=O`, in that order: 328 nM and 181 nM.
Take `CC(C)n1c(NCc2ccc(F)cc2)nc(OCc2ccc(F)cc2F)c(Br)c1=O`: the IC50 is 29.9 nM and the Ki is 13.7 nM.
Compound `CC(=O)N[C@H]1CCN(c2nc(OCc3ccc(F)cc3F)c(Cl)c(=O)n2C(C)C)C1` returned an IC50 of 703 nM and an inhibitory constant (Ki) of 451 nM.
For `CCNC(=O)NCc1cc(F)ccc1COc1nc(C)n(C(C)C)c(=O)c1Br`, in that order: 129 nM and 62.1 nM.
The like results for `CC(C)n1c(N2CC[C@@H](NC(=O)OCc3cccnc3)C2)nc(OCc2ccc(F)cc2F)c(Br)c1=O` were, in that order, 810 nM and 476 nM.
As to `CC(=O)NCCNc1nc(OCc2ccc(F)cc2F)c(Cl)c(=O)n1C(C)C`, the IC50 was found to be 28.1 nM and the Ki is 14.7 nM.
The compound `CC(C)n1c(N2CC[C@H](NC(=O)CO)C2)nc(OCc2ccc(F)cc2F)c(Cl)c1=O` had an IC50 of 813 nM and a Ki of 522 nM.
Regarding `CC(C)n1c(-c2ccc(C(N)=O)cc2)nc(OCc2ccc(F)cc2F)c(Br)c1=O`, the IC50 was found to be 110 nM and the Ki was 60.6 nM.
Compound `CNC(=O)CCCc1nc(OCc2ccc(F)cc2F)c(Cl)c(=O)n1C(C)C` showed an IC50 of 490 nM and a Ki of 252 nM.
`CC(C)n1c(CCCC(N)=O)nc(OCc2ccc(F)cc2F)c(Cl)c1=O` displayed an IC50 of 256 nM and a Ki of 127 nM.
Compound `CC(C)n1c(CCCO)nc(OCc2ccc(F)cc2F)c(Cl)c1=O` gave an IC50 of 392 nM and a Ki of 202 nM.
Compound `CC(C)n1c(NCCNS(C)(=O)=O)nc(OCc2ccc(F)cc2F)c(Br)c1=O` gave an IC50 of 1.7 nM and a Ki of 0.205 nM.
